Laboratory results reported in the Deep4Chem optical property database.
“And” between values parts separate entries of the source, which are not always exact repeats. Identical values can stand only once.

Assay: solvent given as SMILES

## CCN1C(=CC=Cc2n(CC)c3cc(Cl)c(Cl)cc3[n+]2CC)N(CC)c2cc(Cl)c(Cl)cc21
In CC#N
  emission maximum: 529 nm
In CCCCCCO
  emission maximum: 535 nm
In CCCCO
  emission maximum: 534 nm
In CCCO
  emission maximum: 532 nm
In CCO
  emission maximum: 530 nm
In CO
  emission maximum: 528 nm
In CS(C)=O
  emission maximum: 536 nm
In OCC(O)CO
  emission maximum: 535 nm
In OCCO
  emission maximum: 532 nm

## CC1CC=C(c2ccc(-c3ccc(C#N)s3)s2)CC1 (stereo not given)
In C1CCOC1
  emission maximum: 443 nm
In CC#N
  emission maximum: 448 nm
In CCCCCC
  emission maximum: 427 nm
In CCO
  emission maximum: 443 nm
In OCCOCCO
  emission maximum: 451 nm
In c1ccncc1
  emission maximum: 452 nm

## CCCCNc1ccc2n1[B-](F)(F)[N+]1=CC(/C=C/C(=O)OC(C)(C)C)=CC1=C2c1c(C)cc(C)cc1C
In ClCCl
  emission maximum: 546 nm

## c1csc(-c2cnc(-c3cccs3)c3nonc23)c1
In C1CCCCC1
  emission maximum: 567 nm
In CC(C)=O
  emission maximum: 612 nm
In CCCCCC
  emission maximum: 564 nm
In CCCO
  emission maximum: 611 nm
In CCO
  emission maximum: 614 nm
In CCOCC
  emission maximum: 587 nm
In CO
  emission maximum: 616 nm
In Cc1ccccc1
  emission maximum: 600 nm
In ClC(Cl)(Cl)Cl
  emission maximum: 580 nm
In ClC(Cl)Cl
  emission maximum: 611 nm
In O=[N+]([O-])c1ccccc1
  emission maximum: 614 nm
In OCC(O)CO
  emission maximum: 633 nm
In OCc1ccccc1
  emission maximum: 628 nm
In c1ccc2ncccc2c1
  emission maximum: 625 nm
In c1ccccc1
  emission maximum: 601 nm
In c1ccncc1
  emission maximum: 617 nm

## c1ccc(-c2nc(-c3ccccc3)nc(-c3ccc(-n4c5ccccc5c5cc6c(cc54)C4(c5ccccc5-c5ccccc54)c4ccccc4-6)cc3)n2)cc1
In C1CCOC1
  emission maximum: 492.65 nm
In CCCCCC
  emission maximum: 396.27 nm
In Cc1ccccc1
  emission maximum: 432 nm
In ClCCl
  emission maximum: 501.47 nm
In O=P(c1ccccc1)(c1ccccc1)c1ccccc1Oc1ccccc1P(=O)(c1ccccc1)c1ccccc1
  emission maximum: 470 nm

## CN1/C(=C/C=C(/C=C/c2sc3ccccc3[n+]2C)c2ccc(C(F)(F)F)cc2)Sc2ccccc21
In CCO
  emission maximum: 678 nm
In CO
  emission maximum: 676 nm
In CS(C)=O
  emission maximum: 668 nm
In O
  emission maximum: 659 nm

## N#Cc1cc2ccc(O)cc2oc1=N
In C1CCOC1
  emission maximum: 412 nm
In CC#N
  emission maximum: 408 nm
In CCOC(C)=O
  emission maximum: 414 nm
In CS(C)=O
  emission maximum: 409 nm
In ClC(Cl)Cl
  emission maximum: 415 nm

## CCCCCCCCOc1ccc2c3cccc4c(OCCCCCCCC)ccc(c5cccc1c52)c43
In C1CCOC1
  emission maximum: 468.03 nm
In Cc1ccccc1
  emission maximum: 467.99 nm
In ClC(Cl)(Cl)Cl
  emission maximum: 471.01 nm
In ClC(Cl)Cl
  emission maximum: 471.01 nm
In ClCCl
  emission maximum: 469.99 nm
In c1ccncc1
  emission maximum: 474.01 nm

## N#Cc1c(N2CCCC2)cc(-c2ccccc2)c2c1-c1ccccc1C2
In C1CCOC1
  emission maximum: 446 nm

## Cc1ccc(C2=C3C=CC(Sc4ccccc4)=[N+]3[B-](F)(F)n3c(Sc4ccccc4)ccc32)cc1
In C1CCOC1
  emission maximum: 599 nm

## CN1/C(=C/C=C(/C=C/C2=[N+](C)c3ccccc3C2(C)C)c2cc(F)cc(F)c2)C(C)(C)c2ccccc21
In CCO
  emission maximum: 661 nm
In CO
  emission maximum: 655 nm
In CS(C)=O
  emission maximum: 663 nm
In O
  emission maximum: 659 nm

## c1ccc(N(c2ccccc2)c2ccc(-c3ncc(-c4cnc(-c5ccc(N(c6ccccc6)c6ccccc6)cc5)s4)s3)cc2)cc1
In CO
  emission maximum: 510 nm

## Cc1ccc(-c2ccc(-c3ccc(-c4ccc(-c5ccc(C)cc5)cc4)c(/C(=C(/c4ccccc4)c4cc(-c5ccc(-c6ccc(C)cc6)cc5)ccc4-c4ccc(-c5ccc(C)cc5)cc4)c4ccccc4)c3)cc2)cc1
In C1CCOC1
  emission maximum: 498 nm

## COc1ccc(-c2ccc(-c3c4c(nc5ccccc35)-c3cc5c(cc3CC4)-c3nc4ccccc4c(-c4ccc(-c6ccc(OC)cc6)cc4)c3CC5)cc2)cc1
In ClC(Cl)Cl
  emission maximum: 388 nm

## CC1(C)C(/C=C/C2=C(c3ccc(C(=O)O)cc3)C(=C/C=C3/N(CCCCS(=O)(=O)[O-])c4ccc(S(=O)(=O)[O-])cc4C3(C)C)/CCC2)=[N+](CCCCS(=O)(=O)[O-])c2ccc(S(=O)(=O)[O-])cc21
In CO
  emission maximum: 785 nm and 790 nm

## O=c1c2cc(F)c(N3CCCCC3)cc2sc2cc(N3CCCCC3)c(F)cc12
In CCO
  emission maximum: 487 nm

## CN(C)c1ccc(-c2nc3nc4ccccc4nc3n2-c2ccccc2)cc1
In CC#N
  emission maximum: 528 nm

## C(#Cc1ncnc2ccccc12)c1ccc(N(c2ccccc2)c2ccccc2)cc1
In C1CCCCC1
  emission maximum: 433 nm
In C1CCOC1
  emission maximum: 535 nm
In CC#N
  emission maximum: 610 nm
In CS(C)=O
  emission maximum: 616 nm
In ClCCl
  emission maximum: 565 nm

## Oc1ccccc1C1=NC2c3cccc4cccc(c34)C2N1c1ccccc1 (stereo not given)
In Cc1ccccc1
  emission maximum: 575 nm

## CC(=O)[B-]1(C(C)=O)OC(c2ccccc2)=CC(c2ccccc2)=[O+]1
In CC#N
  emission maximum: 400 nm
In ClC(Cl)(Cl)Cl
  emission maximum: 402 nm

## CCOC(=O)c1ccccc1-c1c2ccc(=[N+](CC)CC)cc-2oc2c1c(=O)oc1cc3c(cc12)CCCN3C
In CCO
  emission maximum: 658 nm
In ClC(Cl)Cl
  emission maximum: 647 nm
In O
  emission maximum: 666 nm

## CCCCCCCCCCn1c(-c2cc(-c3nc4ccccc4n3CCCCCCCCCC)cc(-c3nc4ccccc4n3CCCCCCCCCC)c2)nc2ccccc21
In C1CCOC1
  emission maximum: 360.5 nm

## C(S/C=C/c1ccc(/C=C/SC=C2CCCCCC2)cc1)=C1CCCCCC1
In ClCCl
  emission maximum: 422 nm

## CCCCCCOc1ccc(-c2cnc(-c3nnc(-c4ccc(OCCCCCC)cc4)o3)o2)cc1
In C1CCCCC1
  emission maximum: 370 nm
In C1CCOC1
  emission maximum: 386 nm
In CC#N
  emission maximum: 400 nm
In CCO
  emission maximum: 411 nm
In CO
  emission maximum: 419 nm
In ClC(Cl)Cl
  emission maximum: 390 nm

## Cc1cccc(-c2[nH]c(=O)n3c2-c2ccccc2C3=O)c1O
In CC#N
  emission maximum: 480 nm
In CO
  emission maximum: 496 nm
In ClCCl
  emission maximum: 473 nm

## CCCCCCCCCCCCc1sc(CCCCCCCCCCCC)c2c3ccsc3c3sccc3c12
In ClC(Cl)Cl
  emission maximum: 425 nm

## COc1ccc(-n2nc(C#N)c(N3CCCC3)n2)cc1
In CC#N
  emission maximum: 418 nm
In CCCCCC
  emission maximum: 389 nm
In CCO
  emission maximum: 415 nm
In CN(C)C=O
  emission maximum: 418 nm
In CO
  emission maximum: 416 nm
In ClC(Cl)Cl
  emission maximum: 406 nm

## N#Cc1c(N2CCCCC2)cc(-c2cccs2)c2c1-c1cccc3cccc-2c13
In O
  emission maximum: 555 nm

## CCCCN1C(=O)C(=C/C=C/C=C/C=C2N(CCCC)c3ccccc3N2CCCC)C(=O)N(CCCC)C1=S
In CC#N
  emission maximum: 688 nm
In CCCCCC
  emission maximum: 707 nm
In CCO
  emission maximum: 685 nm
In CN(C)C=O
  emission maximum: 690 nm
In CO
  emission maximum: 682 nm
In Cc1ccccc1
  emission maximum: 715 nm
In ClC(Cl)Cl
  emission maximum: 702 nm
In ClCCl
  emission maximum: 697 nm
In OCC(F)(F)F
  emission maximum: 663 nm

## N#Cc1cc(C#N)c(-c2ccc(N(c3ccccc3)c3ccccc3)cc2)cc1-c1ccc(N(c2ccccc2)c2ccccc2)cc1
In Cc1ccccc1
  emission maximum: 477 nm

## CN(C)c1ccc2nc(-c3ccc(/C=N/c4ccccc4)cc3)sc2c1
In C1CCCCC1
  emission maximum: 445 nm
In CC#N
  emission maximum: 610 nm
In CO
  emission maximum: 639 nm
In ClC(Cl)Cl
  emission maximum: 534 nm

## CCCCn1c(=O)c2cc3ccc4cccc5ccc(c2c1=O)c3c45
In ClC(Cl)Cl
  emission maximum: 460 nm

## CCOC(=O)c1c(-c2cc3ccc(OC)cc3oc2=O)nn(-c2ccccc2)c1C(=O)OCC
In ClCCl
  emission maximum: 421 nm

## Cc1cc(C)c([B-]2(c3c(C)cc(C)cc3C)[O+]=P(c3ccccc3)(c3ccccc3)c3cc(-c4ccc(C(C)(C)C)cc4)sc3-c3sc(-c4ccc(C(C)(C)C)cc4)cc32)c(C)c1
In C1CCOC1
  emission maximum: 498 nm

## CC(C)(C)c1cccc2c([O-])cccc12
In O
  emission maximum: 443 nm

## Clc1ccccc1-c1nc2sc3ccccc3c2s1
In CS(C)=O
  emission maximum: 412 nm

## CCOC(=O)c1ccc(C2CC(c3cccc4ccccc34)=NN2c2ccc(C#N)cc2)cc1 (stereo not given)
In ClCCl
  emission maximum: 430 nm

## Cc1cc(C)c([B-]2(c3c(C)cc(C)cc3C)[O+]=P(c3ccccc3)(c3ccccc3)c3cc(-c4ccc(C(F)(F)F)cc4)sc3-c3sc(-c4ccc(C(F)(F)F)cc4)cc32)c(C)c1
In C1CCOC1
  emission maximum: 468 nm

## CCN(CC)c1ccc2c(c1)oc(=O)c1c(=O)oc3c(OC)cccc3c12
In CS(C)=O
  emission maximum: 572 nm
In ClCCl
  emission maximum: 530 nm

## Cc1cc(C)c(B(c2c(C)cc(C)cc2C)c2ccc3ccc4cccc5ccc2c3c45)c(C)c1
In Cc1ccccc1
  emission maximum: 423 nm

## F[B-]1(F)n2c(ccc2-c2cccs2)C(C(F)(F)F)=C2C=CC(c3cccs3)=[N+]21
In CCCCCC
  emission maximum: 674 nm

## O=C1CCCC2=C1C(c1cccc(Cl)c1)c1c(c3ccccc3oc1=O)N2 (stereo not given)
In CS(C)=O
  emission maximum: 443 nm

## CCCCN1\C(=C/C=C/C=C/C2=[N+](CCCC)c3ccc4ccccc4c3C2(C)C)C(C)(C)c2c1ccc1ccccc21
In C1CCOC1
  emission maximum: 710 nm
In CC#N
  emission maximum: 698 nm
In CC(C)=O
  emission maximum: 701 nm
In CCO
  emission maximum: 704 nm
In CN(C)C=O
  emission maximum: 705 nm
In CO
  emission maximum: 701 nm
In CS(C)=O
  emission maximum: 709 nm
In ClCCl
  emission maximum: 713 nm

## CCOC(=O)c1cc(C(=O)OCC)c2cccc(OC)c2n1
In CCO
  emission maximum: 526 nm

## CCC1=[N+]2c3c(c4ccc(Oc5c(C)cc(C)cc5C)c5cc6c(Oc7c(C)cc(C)cc7C)ccc7c8cc(CC)n(c8c3c(c54)c67)[B-]2(F)F)=C1
In Cc1ccccc1
  emission maximum: 924 nm

## CC(C)[Si](C#Cc1c2nc3ccccc3nc2c(C#C[Si](C(C)C)(C(C)C)C(C)C)c2nc3c(ccc4ccccc43)nc12)(C(C)C)C(C)C
In CCCCCC
  emission maximum: 656 nm

## c1ccc2cc3cnccc3cc2c1
In CCO
  emission maximum: 426.44 nm

## C[Si](C)(C)C#Cc1ccc(C#Cc2cnc(C#Cc3ccccc3)nc2)cc1
In C1CCCCC1
  emission maximum: 390 nm

## OC1(c2ccc(-c3cccs3)s2)CCCCC1
In C1CCOC1
  emission maximum: 458 nm
In CC#N
  emission maximum: 466 nm
In CCCCCC
  emission maximum: 465 nm
In CCO
  emission maximum: 465 nm
In OCCOCCO
  emission maximum: 447 nm
In c1ccncc1
  emission maximum: 475 nm

## Nc1ccc2c(c1)C(=O)c1ccc(N)cc1C2=O
In CC#N
  emission maximum: 594 nm
In CC(C)O
  emission maximum: 616 nm
In CCO
  emission maximum: 616 nm
In CCOC(C)=O
  emission maximum: 547.6 nm
In CO
  emission maximum: 616 nm

## COc1ccc(-c2c3ccccc3c(C#Cc3ccccc3)c3ccccc23)cc1
In ClCCl
  emission maximum: 452 nm
